Reference: patent US5534497A, “Technetium chelates to be used for determining the renal function” (Mallinckrodt Medical, Inc., priority 1986, dated 1996)

Experiments:
[1] = Biodistribution in mice by organ uptake measurements, relative to Tc99m-MAG3 (iodo-131-Hippuran as reference standard); type: in vivo; conditions: for Blood: ratio of uptake of compound to uptake of Tc99m-MAG3 / Hepatic (system): ratio of uptake of compound to uptake of Tc99m-MAG3 / Intestines: ratio of uptake of compound to uptake of Tc99m-MAG3 / Kidneys: ratio of uptake of compound to uptake of Tc99m-MAG3 / Liver: ratio of uptake of compound to uptake of Tc99m-MAG3 / Remainder / Rest of the body: ratio of uptake of compound to uptake of Tc99m-MAG3 / Renal (system): ratio of uptake of compound to uptake of Tc99m-MAG3 / Stomach: ratio of uptake of compound to uptake of Tc99m-MAG3 / Urine: ratio of uptake of compound to uptake of Tc99m-MAG3: intravenous, 10 minutes after administration, each normalised to iodo-131-Hippuran; for Secretion characteristics / organ distribution compared with Tc99m-MAG3 (in words): secretion in urine, retention in kidneys, liver, intestines
Procedure: Tc99m-MAGAG-DA, separated by HPLC, is diluted with physiological saline solution to a concentration of 370 kilobecquerel per mi. Iodo-131-Hippuran is added to this solution as a reference standard. An amount of 0.1 ml of this mixture is injected intravenously into each of the eight mice, so that 37 kilobecquerel of Tc99m-MAGAG-DA and 18.5 kilobecquerel of iodo-131-Hippuran are injected per animal. Measures are taken to collect all the excreted urine. 10 Minutes after the administration the mice are sacrificed. It is ensured that all the blood is collected. All parts of the body are brought in separate tubes and the activity of Tc99m and I131 is determined for each part of the body. From the measured results the relative quantity of both tracer products in urine, kidneys, intestines. liver, blood and the collective remainder of the body is computed. In the same manner, Tc99m-MAGA-DB, separated by HPLC, and Tc99m-mercaptoacetylglycylglycylglycine (Tc99m-MAG3), purified by HPLC, both with iodo-131-Hippuran as a reference standard, are tested in two other groups of 8 and 6 mice, respectively. For all three Tc99m-labelled compounds -- MAGAG-DA, MAGAG-DB and MAG3 -- the relative percentages of Tc99m activity in the various organs are calculated with respect to iodo-131-Hippuran. After this, the ratios of Tc99m-MAGAG-DA and -DB can be calculated with respect to Tc99m-MAG3 in the various organs.
In the same ray as described in Example III the biodistribution of the above compound in mice is determined relative to that of Tc99m-MAG3 by organ uptake measurements.
In the same way as described in Example III the biodistribution of the above compound in mice is determined relative to that of Tc99m-MAG3 by organ uptake measurements.

[2] = background statement; cited from earlier work
[3] = glomerular filtration about 125 ml per minute, total renal clearance 600 to 700 ml per minute; cited from earlier work

| Molecule | Blood: ratio of uptake of compound to uptake of Tc99m-MAG3 [1] | Hepatic (system): ratio of uptake of compound to uptake of Tc99m-MAG3 [1] | Intestines: ratio of uptake of compound to uptake of Tc99m-MAG3 [1] | Kidneys: ratio of uptake of compound to uptake of Tc99m-MAG3 [1] | Liver: ratio of uptake of compound to uptake of Tc99m-MAG3 [1] | Remainder / Rest of the body: ratio of uptake of compound to uptake of Tc99m-MAG3 [1] | Renal (system): ratio of uptake of compound to uptake of Tc99m-MAG3 [1] | Stomach: ratio of uptake of compound to uptake of Tc99m-MAG3 [1] | Urine: ratio of uptake of compound to uptake of Tc99m-MAG3 [1] | Secretion characteristics / organ distribution compared with Tc99m-MAG3 (in words) [1] | Secretion by the kidneys (in words) [2] | clearance [3] |
| --- | --- | --- | --- | --- | --- | --- | --- | --- | --- | --- | --- | --- |
| Tc99m-mercaptoacetylglycyl-D-alanylglycine [Tc99m-MAGAG-DB] | 1.20 | 0.59 | 0.41 | 0.37 | 0.68 | 0.94 | 1.07 | 0.85 | 1.14 | significantly better than those of Tc99m-MAG3 | – | – |
| Tc99m-mercaptoacetylglycylglycylglycine [Tc99m-MAG3] | – | – | – | – | – | – | – | – | – | – | secreted by the kidneys selectively and slightly faster than iodo-Hippuran | – |
| Tc99m-mercaptoacetyl-D-alanylglycylglycine [Tc99m-MAAG2-DB] | 1.17 | 0.84 | 0.95 | 0.66 | 0.79 | 1.45 | 0.96 | 1.40 | 0.99 | more favourable organ distribution than Tc99m-MAG3 | – | – |
| O=C([O-])CNC(=O)c1ccccc1[131I].[Na+] [iodo-131-Hippuran] | – | – | – | – | – | – | – | – | – | – | secreted actively tubularly | – |
| Tc99m-mercaptoacetylglycyl-D-alanylglycine [Tc99m-MAGAG-DA] | 1.12 | 0.60 | 0.44 | 0.36 | 0.68 | 0.90 | 1.05 | 0.83 | 1.13 | significantly better than those of Tc99m-MAG3 | – | – |
| O=C([O-])CN(CCN(CC(=O)[O-])CC(=O)[O-])CCN(CC(=O)[O-])CC(=O)[O-].[99Tc+4] [chelate of DTPA, Tc99m-diethylene triamine pentascetic acid] | – | – | – | – | – | – | – | – | – | – | – | 100 ml of blood plasma per minute |
